Measurements reported in patent US9803164B2, “Megakaryocyte and platelet production from stem cells” (priority 2011, dated 2017).
Residues, ends and D or L forms follow the SMILES beside them. *: point of attachment. Cbz = O=C(OCc1ccccc1)*; CH2F = FC*

Tests used:
Format in all cases: cell-based
[1] = tested on: platelets collected from the bioreactor; experiment: Platelet surface expression of P-selectin after activation, flow cytometry; conditions: PMA 10 μg/mL, 15 min, room temperature; 25% at baseline
Method: Platelets collected from the bioreactor were tested for their function based on the externalization of P-Selectin after activation with phorbol myristate acetate (PMA) using flow cytometry. Platelets were collected in eppendorf tubes, labeled with Alexa 647-conjugated anti-CD41 antibody, PE-conjugated anti-CD-62P (Becton Dickinson) and a live cell stain, Calcein AM (Sigma-Aldrich) for 15 min at room temperature. Next, platelets were activated using PMA (Sigma Aldrich) 10 μg/mL for 15 min at room temperature. Cells were then analyzed by flow cytometry for P-Selectin externalization. Anti-Y1-PE (Becton Dickinson) was used as an isotype control.

[2] = tested on: UCB derived CD34 cells; experiment: Expansion of UCB derived CD34 enriched cells in serum-free suspension culture with reagents; conditions: control mean 40-fold, n=3; for CD34 fold expansion (mean): day 7 of culture, SR-1 0.75 μM, TEPA 5 μM, zVADfmk 100 nM, SCF, TPO, FLT3-ligand 50 ng/ml
Method: Umbilical cord blood units not suitable for clinical use were obtained from the New York Blood Center National Cord Blood Bank, where they were collected after informed consent in accord with the Declaration of Helsinki. Isolation of umbilical cord blood CD34 cells was performed using either a positive selection or a negative selection method. The positive selection method used has been described in G. Mattia et al., Different ploidy levels of megakaryocytes generated from peripheral or cord blood CD34+ cells are correlated with different levels of platelet release, 99(3) BLOOD 888 (February 2002). Briefly, mononuclear cells were layered on a Ficoll-Hypaque gradient (GE Healthcare, Barrington, Ill.), washed twice with phosphate-buffered saline (PBS) (Life Technologies) supplemented with 5% fetal bovine serum (FBS) (Life Technologies). To purify CD34 cells, the mononuclear selection fraction was subject to two cycles of immunomagnetic bead separation using a MINIMACS CD34 isolation kit (Miltenyi Biotech, Auburn, Calif.), according to manufacturer's recommendations. The purity of the sample ranged from 70% to 90% CD34 positive and was approximately 30% CD41 positive based on flow cytometry analysis.
The negative selection method was based on previously described methods where umbilical cord blood-derived CD34 cells were enriched by a negative selection method with the use of ROSETTESEP (Stem Cell Technologies, Vancouver, Canada). M. P. Avanzi et al., Optimizing megakaryocyte polyploidization by targeting multiple pathways of cytokinesis, 52(11) TRANSFUSION 2406 (November 2012). Briefly, cells were washed with phosphate buffered saline (PBS, Life Technologies) and incubated with ROSETTESEP reagent for 10 min at room temperature. Next, cells were layered on a Ficoll-Hypaque gradient, washed twice with phosphate-buffered saline. The final product was approximately 20% to 30% CD34 positive and 30% CD41 positive.
UCB derived CD34 enriched cells were plated at a density of 1×10^4 per well (24 well plate) in suspension culture and combined with one of the following reagents: STEM REGENIN-1 (StemCell Technologies, Vancouver, BC), 0.75 μM; copper chelator tetraethylenepentamine, 5 μM (TEPA) (Sigma Aldrich, St Louis, Mo.); or zVADfmk, 100 nM (Abcam, Cambridge, Mass.). Reagents were added with culture medium and cytokine cocktail on day 0, 4, 7 and 10 of culture. Additionally, in separate experiments, CD34 enriched cells were expanded on NANEX nanofiber membranes (Arteriocyte, Cleveland Ohio). […]
All flow cytometry experiments where performed with a BD FACS LSR FORTESSA machine (Becton Dickinson, San Jose, Calif.) and analyzed with BD FACSDIVA software (Becton Dickinson). […] Labeled cells were then analyzed and counted.

[3] = tested on: megakaryocytes (CD41 cells); experiment: Megakaryocyte ploidy by flow cytometry after induction of polyploidization; conditions: day 11; treated once on day 8; latrunculin 10 μg/ml or Y27632 10 μM; controls less than 10%; p=0.007, n=3
Method: (§1) At the completion of the megakaryocyte differentiation stage on day 8, megakaryocytes were stimulated to undergo polyploidization by adding either the actin polymerization inhibitor, latrunculin (Santa Cruz Biotechnologies, Dallas, Tex.), at a final concentration of 10 μg/ml, or the Rho-kinase inhibitor, Y27632 (Sigma Aldrich, St. Louis, Mo.), at 10 μM, and then culturing the cells for an additional 3 or 4 days.
Megakaryocyte ploidy was analyzed on day 11 of culture. Cells were labeled with Alexa 647-conjugated anti-CD41 antibody, incubated for 20 min on ice, fixed with 4% paraformaldehyde (Fisher Scientific) for 15 minutes and then washed with PBS. Next, cells were permeabilized with methanol 75% (Sigma Aldrich) for 1 hour at 4° C. and washed with PBS+BSA, 2%+NP40, 0.05% (Fischer Scientific) solution. Finally cells were treated with Propidium Iodide/RNase solution (Becton Dickinson) and incubated for 30 minutes in the dark at room temperature before flow cytometry analysis.

[4] = tested on: megakaryocytes; experiment: Proplatelet formation quantification (grid strategy); conditions: day 11; treated on day 8; p=0.02, n=3
Method: as §1
Proplatelet formation was quantified on day 11 of culture using a grid strategy, as previously described by M. P. Avanzi et al., Rho kinase inhibition drives megakaryocyte polyploidization and proplatelet formation through MYC and NFE2 downregulation, 164(6) BR. J HAEMATOL. 867 (March 2014). Briefly, using an inverted light microscope (Olympus CKX41) 10 random-field images were acquired at 40× magnification from each well. All megakaryocytes present on each field were counted. A counting grid with 25 μm squares was used to enumerate the number of proplatelet processes. Each proplatelet segment inside each square was counted and the sum of all segments in 10 random field images (40× magnification) was used for comparison. From these numbers, a measure of proplatelet density per cell per unit area was generated and used to compare the results of different culture conditions.

Molecule | CD34 fold expansion (mean) [2] [fold] | Proportion of megakaryocytes with ploidy >8 [3] [%] | Proplatelets generated compared with control megakaryocytes [4] | also measured
CCCCCCCCCCCCCC(=O)O[C@@H]1[C@@H](C)[C@@]2(O)[C@@H](C=C(CO)C[C@]3(O)C(=O)C(C)=C[C@@H]23)[C@@H]2C(C)(C)[C@]12OC(C)=O [PMA, phorbol 12-myristate 13-acetate] | – | – | – | Particles expressing p-selectin after stimulation [1]: 65%
CC(C)n1cnc2c(NCCc3ccc(O)cc3)nc(-c3csc4ccccc34)nc21 [SR-1, stem regenin-1] | 85 | – | – | CD34 fold expansion versus control culture (significance) ([2]; day 7): not significantly different
NCCNCCNCCNCCN [TEPA, tetraethylenepentamine] | 19 | – | – | –
C[C@@H](N)[C@H]1CC[C@H](C(=O)Nc2ccncc2)CC1 [Y27632] | – | 30 | significantly more | –
COC(=O)CC(NC(=O)C(C)NC(=O)C(NC(=O)OCc1ccccc1)C(C)C)C(=O)CF (stereo not drawn) [zVADfmk, benzyloxycarbonyl-Val-Ala-Asp (OMe) fluoromethylketone] (Cbz-Val-Ala-Asp(OMe)-CH2F; configuration not given here) | 25 | – | – | –
latrunculin | – | 30 | significantly more | –
